Results published in US9469615B2, “Quinoxalines and AZA-quinoxalines as CRTH2 receptor modulators” (Merck Sharp & Dohme Corp., priority 2010, dated 2016).

Target: T1, hCRTH2 (Homo sapiens, UniProt Q9Y5Y4)
T1 construct: expressed in transfected cells; host or cells: HEK (human embryonic kidney) cells expressing hCRTH2; membrane preparation
T1 sequence (Q9Y5Y4 1-395): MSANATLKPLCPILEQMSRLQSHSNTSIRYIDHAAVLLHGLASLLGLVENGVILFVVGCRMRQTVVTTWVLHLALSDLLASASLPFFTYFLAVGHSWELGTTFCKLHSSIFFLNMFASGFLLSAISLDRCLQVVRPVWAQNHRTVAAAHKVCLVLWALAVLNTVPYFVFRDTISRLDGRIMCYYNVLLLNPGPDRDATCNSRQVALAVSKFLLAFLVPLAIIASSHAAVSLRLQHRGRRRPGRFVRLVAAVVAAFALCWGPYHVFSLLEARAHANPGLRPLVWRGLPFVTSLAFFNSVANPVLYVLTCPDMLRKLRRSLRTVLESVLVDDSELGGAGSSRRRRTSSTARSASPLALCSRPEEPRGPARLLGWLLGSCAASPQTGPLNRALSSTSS
Assay: Radioligand binding assay ([3H]PGD2 competition, HEK-hCRTH2 membranes)
Procedure, shortened: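 Using membranes of an HEK line stably carrying hCRTH2, ligands were tested against [3H]PGD2 (3.0 nM) in pH 7.4 Tris buffer containing 2 mM MnCl2 and 1 mM EDTA. After one hour at room temperature, filters were washed cold and counted.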

| Ki ([3H]PGD2 competition, Table B) [µM] | Ki ([3H]PGD2 binding, values in text) [µM] | SMILES |
| --- | --- | --- |
| 0.701 to 2.3 | – | C[C@H](CCc1nc2cc(C(=O)N3CCN(c4ccccc4)CC3)ccc2nc1-c1ccccc1)CC(=O)O [compound 280, (R)-3-methyl-5-(3-phenyl-7-(4-phenylpiperazine-1-carbonyl)quinoxalin-2-yl)pentanoic acid] |
| 0.201 to 0.7 | – | C[C@H](CCc1nc2cc(C(=O)N(C)Cc3ccc(F)cc3)ccc2nc1-c1ccccc1)CC(=O)O [compound 283, (R)-5-(7-((4-fluorobenzyl)(methyl)carbamoyl)-3-phenylquinoxalin-2-yl)-3-methylpentanoic acid] |
| 0.0021 to 0.02 | – | Cc1ccc([C@@]23C[C@@H]2CN(C(=O)c2ccc4nc(-c5ccc(Cl)cc5)c(CCCCC(=O)O)nc4c2)C3)cc1 [compound 285, 5-(3-(4-chlorophenyl)-7-((1R,5S)-1-(p-tolyl)-3 - azabicyclo[3.1.0]hexane-3-carbonyl)quinoxalin-2-yl)pentanoic acid] |
| 0.0021 to 0.02 | – | C[C@@H](CCc1nc2cc(C(=O)N3CC(c4cccc(F)c4)C3)ccc2nc1-c1ccccc1)CC(=O)O [compound 290, (S)-5-(7-(3-(3-fluorophenyl)azetidine-1-carbonyl)-3-phenylquinoxalin-2-yl)-3-methylpentanoic acid] |
| 0.0021 to 0.02 | – | C[C@@H](CCc1nc2cc(C(=O)N[C@@H]3CCCc4ccccc43)ccc2nc1-c1ccccc1)CC(=O)O [compound 293, (S)-3-methyl-S-(3-phenyl-7-(((R)-1,2,3,4-tetrahydronaphthalen-1-yl)carbamoyl)quinoxalin-2-yl)pentanoic acid] |
| 0.0021 to 0.02 | – | O=C(O)CCCCc1nc2cc(C(=O)NC3CCCOc4ccccc43)ccc2nc1-c1ccccc1 (stereo not drawn) [compound 294, 5-(3-phenyl-7-((2,3,4,5-tetrahydrobenzo[b]oxepin-5-yl)carbamoyl)quinoxalin-2-yl)pentanoic acid] |
| 0.0021 to 0.02 | – | O=C(O)CCCCc1nc2cc(C(=O)N3CCC4(CC3)NC(=O)Cc3ccccc34)ccc2nc1-c1ccccc1 [compound 299, 5-(7-(3-oxo-3,4-dihydro-2H-spiro[isoquinoline-1,4′-piperidin]-1′-ylcarbonyl)-3-phenylquinoxalin-2-yl)pentanoic acid] |
| 0.0021 to 0.02 | – | O=C(O)CCCCc1nc2cc(C(=O)N[C@@H]3CCSc4ccccc43)ccc2nc1-c1ccccc1 [compound 301, (R)-5-(3-phenyl-7-(thiochroman-4-ylcarbamoyl)quinoxalin-2-yl)pentanoic acid] |
| 0.0021 to 0.02 | – | O=C(O)CCCCc1nc2cc(C(=O)N3CCN(Cc4ccccc4)CC3)ccc2nc1-c1ccccc1 [compound 302, 5-(7-(4-benzylpiperazine-1-carbonyl)-3-phenylquinoxalin-2-yl)pentanoic acid] |
| 0.0021 to 0.02 | – | N#Cc1cccnc1N1CCN(C(=O)c2ccc3nc(-c4ccccc4)c(CCCCC(=O)O)nc3c2)CC1 [compound 303, 5-(7-(4-(3-cyanopyridin-2-yl)piperazine-1-carbonyl)-3-phenylquinoxalin-2-yl)pentanoic acid] |
| 0.0021 to 0.02 | – | O=C(O)CCCCc1nc2cc(C(=O)N3CCN(c4ccccc4C(F)(F)F)CC3)ccc2nc1-c1ccccc1 [compound 305, 5-(3-phenyl-7-(4-(2-(trifluoromethyl)phenyl)piperazine-1-carbonyl)quinoxalin-2-yl)pentanoic acid] |
| 0.0201 to 0.2 | – | O=C(O)CCCCc1nc2cc(C(=O)N3CCN(c4nccs4)CC3)ccc2nc1-c1ccccc1 [compound 306, 5-(3-phenyl-7-(4-(thiazol-2-yl)piperazine-1-carbonyl)quinoxalin-2-yl)pentanoic acid] |
| 0.0021 to 0.02 | – | O=C(O)CCCCc1nc2cc(C(=O)N3CCN(c4cccc(C(F)(F)F)c4)CC3)ccc2nc1-c1ccccc1 [compound 309, 5-(3-phenyl-7-(4-(3-(trifluoromethyl)phenyl)piperazine-l-carbonyl)quinoxalin-2-yl)pentanoic acid] |
| 0.0021 to 0.02 | – | O=C(O)CCCCc1nc2cc(C(=O)N[C@H]3CCOc4cc(F)ccc43)ccc2nc1-c1ccccc1 [compound 310, (S)-5-(7((7-fluorochroman-4-yl)carbamoyl)-3-phenylquinoxalin-2-yl)pentanoic acid] |

Continued, molecule first:

| SMILES | Ki ([3H]PGD2 competition, Table B) [µM] | Ki ([3H]PGD2 binding, values in text) [µM] |
| --- | --- | --- |
| C[C@H](CCc1nc2cc(C(=O)N3CC(c4cccc(F)c4)C3)ccc2nc1-c1ccccc1)CC(=O)O [compound 281, (R)-5-(7-(3-(3-fluorophenyl)azetidine-1-carbonyl)-3-phenylquinoxalin-2-yl)-3-methylpentanoic acid] | 0.0201 to 0.2 | – |
| C[C@H](CCc1nc2cc(C(=O)N3CC[C@@H](c4ccccc4)C3)ccc2nc1-c1ccccc1)CC(=O)O [compound 282, (R)-3-methyl-5-(3-phenyl-7-((S)-3-phenylpyrrolidine-1-carbonyl)quinoxalin-2-yl)pentannic acid] | 0.201 to 0.7 | – |
| O=C(O)CCCCc1nc2cc(C(=O)NC3CC(=O)Nc4ccc(F)cc43)ccc2nc1-c1ccccc1 (stereo not drawn) [compound 284, 5-(7-((6-fluoro-2-oxo-1,2,3,4-tetrahydroquinolin-4-yl)carbamoyl)-3-phenylquinoxalin-2-yl)pentanoic acid] | 0.0021 to 0.02 | – |
| C[C@@H](CCc1nc2cc(C(=O)N[C@H]3CCCc4ccccc43)ccc2nc1-c1ccccc1)CC(=O)O [compound 286, (S)-3-methyl-5-(3-phenyl-7-(((S)-1,2,3,4-tetrahydronaphthalen-1-yl)carbamoyl)quinoxalin-2-yl)pentanoic acid] | 0.0201 to 0.2 | – |
| C[C@@H](CCc1nc2cc(C(=O)N[C@H](C)c3ccc(F)cc3)ccc2nc1-c1ccccc1)CC(=O)O [compound 287, (S)-5-(7-(((R)-1-(4-fluorophenyl)ethyl)carbamoyl)-3-phenylquinoxalin-2-yl)-3-methylpentanoic acid] | 0.0201 to 0.2 | – |
| C[C@@H](CCc1nc2cc(C(=O)N[C@@H](C)c3ccc(F)cc3)ccc2nc1-c1ccccc1)CC(=O)O [compound 288, (S)-5-(7-(((S)-1-(4-fluorophenyl)ethyl)carbamoyl)-3-3-phenylquinoxalin-2-yl)-3-methylpentanoic acid] | 0.0201 to 0.2 | – |
| C[C@@H](CCc1nc2cc(C(=O)N3CCN(c4ccccc4)CC3)ccc2nc1-c1ccccc1)CC(=O)O [compound 289, (S)-3-methyl-5-(3-phenyl-7-(4-phenylpiperazine-1-carbonyl)quinoxalin-2-yl)pentanoic acid] | 0.0201 to 0.2 | – |
| C[C@@H](CCc1nc2cc(C(=O)N3CC[C@@H](c4ccccc4)C3)ccc2nc1-c1ccccc1)CC(=O)O [compound 291, (S)-3-methyl-5-(3-phenyl-7-((S)-3-phenylpyrrolidine-1-carbonyl)quinoxalin-2-yl)pentanoic acid] | 0.0021 to 0.02 | – |
| C[C@@H](CCc1nc2cc(C(=O)N(C)Cc3ccc(F)cc3)ccc2nc1-c1ccccc1)CC(=O)O [compound 292] | 0.0201 to 0.2 | 0.0392 |
| CC1(C)CC(NC(=O)c2ccc3nc(-c4ccccc4)c(CCCCC(=O)O)nc3c2)c2ccccc2O1 (stereo not drawn) [compound 295, 5-(7((2,2-dimethylchroman-4-yl)carbamoyl)-3-phenylquinoxalin-2-yl)pentanoic acid] | 0.0021 to 0.02 | – |
| CC1(C)CCC(NC(=O)c2ccc3nc(-c4ccccc4)c(CCCCC(=O)O)nc3c2)c2ccccc21 (stereo not drawn) [compound 296, 5-(7-((4,4-dimethyl-1,2,3,4-tetrahydronaphthalen-1-yl)carbamoyl)-3-phenylquinoxalin-2-yl)pentanoic acid] | 0.0021 to 0.02 | – |
| O=C(O)CCCCc1nc2cc(C(=O)N3CCC4(CCCc5ccccc54)C3)ccc2nc1-c1ccccc1 (stereo not drawn) [compound 297, 5-(7-(3,4-dihydro-2H-spiro[naphthalene-1,3′-pyrrolidin]-1′-ylcarbonyl)-3-phenylquinoxalin-2-yl)pentanoic acid] | 0.0021 to 0.02 | – |
| O=C(O)CCCCc1nc2cc(C(=O)N3CCC4(CC3)CNC(=O)c3ccccc34)ccc2nc1-c1ccccc1 [compound 298, 5-(7-(i-oxo-2,3-dihydro-1H-spiro[isoquinoline-4,4′-piperidin]-1′-ylcarbonyl)-3-phenylquinoxalin-2-yl)pentanoic acid] | 0.0021 to 0.02 | – |
| O=C(O)CCCCc1nc2cc(C(=O)N3CCC4(CC3)Cc3ccccc3C(=O)N4)ccc2nc1-c1ccccc1 [compound 300, 5-(7-(1-oxo-2,4-dihydro-1H-spiro[isoquinoline-3,4′-piperidin]-1′-ylcarbonyl)-3-phenylquinoxalin-2-yl)pentanoic acid] | 0.0021 to 0.02 | – |
| O=C(O)CCCCc1nc2cc(C(=O)N3CCN(c4c(Cl)cncc4Cl)CC3)ccc2nc1-c1ccccc1 [compound 304, 5-(7-(4-(3,5-dichloropyridin-4-yl)piperazine-1-carbonyl)-3-phenylquinoxalin-2-yl)pentanoic acid] | 0.0021 to 0.02 | – |
| O=C(O)CCCCc1nc2cc(C(=O)N3Cc4ccccc4C3)ccc2nc1-c1ccccc1 [compound 307, 5-(7-(isoindoline-2-carbonyl)-3-phenylquinoxalin-2-yl)pentanoic acid] | 0.0201 to 0.2 | – |
| O=C(O)CCCCc1nc2cc(C(=O)N3CCN(c4ccccc4Cl)CC3)ccc2nc1-c1ccccc1 [compound 308, 5-(7-(4-(2-chlorophenyl)piperazine-1-carbonyl)-3-phenylquinoxalin-2-yl)pentanoic acid] | 0.0021 to 0.02 | – |
| O=C(O)CCCCc1nc2cc(C(=O)NC3CCCc4cc(OCc5ccccc5)ccc43)ccc2nc1-c1ccc(Cl)cc1 (stereo not drawn) [compound 311, 5-(7-((6-(benzyloxy)-1,2,3,4-tetrahydronaphthalen-1-yl)carbamoyl)-3-(4-chlorophenyl)quinoxalin-2-yl)pentanoic acid] | 0.0021 to 0.02 | – |
